Laboratory results published in patent US20050255537A1, “Method for monitoring treatment with a parathyroid hormone” (priority 1999, published 2005).

How the values were obtained:
postmenopausal women = assay: Example 4 population pharmacodynamic models of total lumbar spine and femoral neck BMD; format: in vivo, human
Source text: Data from the studies described in Examples 1-3 above were further analyzed to develop more detailed models for the use of bone markers in monitoring and predicting effects of PTH on clinically significant correlates of efficacy in the treatment of osteoporosis, such as bone mineral density (BMD). Population pharmacodynamic (PD) models were developed to describe total lumbar spine and femoral neck bone mineral density (BMD) responses in ˜1500 postmenopausal women enrolled in a phase 3 study of LY333334 [rhPTH(1-34)]. Serum LY333334 (LY), procollagen 1 carboxy-terminal propeptide (PICP) and bone specific alkaline phosphatase (B SAP) concentrations, and urinary excretion of N-telopeptide (NTX) and free deoxypyridinoline (DPD) were also measured in a subset of ˜350 patients. LY dose, average steady-state LY concentration, and early changes in markers of bone turnover were each evaluated for their ability to predict subsequent changes in BMD. […] Response was greatest in patients with increased fracture risk (i.e., older women with low BMD, low body weight, and high bone turnover at baseline). In the subset analysis, PICP was the strongest indicator of BMD response; an increase >101 pM after 1 month of therapy was always associated with a gain in spine BMD. NTX was also a better predictor of increase in BMD than LY dose, but dose predicted BMD response better than LY, BSAP or DPD concentrations (p<0.001).
Population pharmacodynamic models were developed individually for total lumber spine BMD, femoral neck BMD, procollagen 1 carboxy-terminal propeptide (PICP), bone specific alkaline phosphate (BSAP), urinary N-telopeptide (NTX), and urinary free deoxypyridinoline (DPD). These treatment-response models characterized change in the pharmacodynamic endpoints and identified significant patient factors influencing response to therapy.
The final treatment-response models for total lumbar spine and femoral neck BMD were used to calculate BMD values after 21 months of treatment for each patient, based on the individual's parameter estimates (empirical Bayesian estimates). Similarly, the final treatment-response models for each biochemical maker (PICP, BSAP, NTX, and DPD) were used to calculate concentration values after 1 month of treatment for each patient. These predicted BMD measurements were merged with the predicted biochemical marker concentrations for patients who completed at least 12 months of LY333334 therapy.
Biochemical marker response-indicator models were developed to characterize the relationship between the biochemical marker concentrations at 1 month and response to therapy, as measured by change in total lumbar spine and femoral neck BMD.
Population pharmacodynamic analyses were undertaken to evaluate the time course of the relationships between efficacy measures and LY333334 dose or LY333334 concentrations. […] As a part of this assessment, a population placebo-response model describing the change in BMD in patients randomly assigned to placebo (supplemented with calcium and vitamin D) was first developed. Patient-specific factors that explained some of the variability of that model were identified and included in the model. A pharmacodynamic model describing the therapeutic response was then developed for patients randomly assigned to LY333334 treatment using the placebo-response model as the baseline function. Thus, the progression of bone loss that occurs in osteoporosis patients receiving only calcium and vitamin D supplementation was separated from the effects of LY333334 treatment.

[1] = test system: postmenopausal osteoporotic women; conditions: GHAC efficacy trial, disclosed in PCT/US99/18961; cited from earlier work
[2] = test system: BSAP and PICP serum levels, NTX urine levels; assay: Example 3 clinical trial of rhPTH(1-34) vs alendronate: bone markers; format: in vivo, human; conditions: 40 μg/day PTH
Procedure: • Number of Subjects: • rhPTH(1-34): 73 enrolled, 51 finished. • Alendronate (Fosamax®): 73 enrolled, 57 finished. • Diagnosis and Inclusion Criteria: Women aged 65±8 years, postmenopausal for 19±19 years, selected for a baseline spine bone mineral density of 0.8±0.1 and a T value of −2.2. Dosage and Administration: • Test Product (blinded) • rhPTH(1-34): 40 μg/day, given subcutaneously • Reference (Control) Therapy (blinded) • Alendronate (Fosamax®): 10 mg per patient per day • Duration of Treatment: • rhPTH(1-34): 12-18 months, with follow up from time of withdrawal of drug to 18 months of study. • Alendronate: 12-18 months, with follow up from time of withdrawal of drug to 18 months of study. • Criteria for Evaluation: Spine x-ray, serum biological markers (calcium, bone-specific alkaline phosphatase, procollagen I carboxy-terminal propeptide); urine makers (calcium, N-telopeptide, fir deoxypyridinoline); 1,25-dihydroxyvitamin D; bone mineral density spine, hip, wrist, and total body.
Measures of BSAP, PICP, and NTX levels were determined for each patient through the course of therapy generally according to methods described above in Example 1.

[3] = 21 months, 20 and 40 μg groups together
[4] = about 5-6 weeks following termination (18 months)

## CC[C@H](C)[C@H](NC(=O)[C@H](CCC(=O)O)NC(=O)[C@H](CO)NC(=O)[C@@H](NC(=O)[C@@H](N)CO)C(C)C)C(=O)N[C@@H](CCC(N)=O)C(=O)N[C@@H](CC(C)C)C(=O)N[C@@H](CCSC)C(=O)N[C@@H](Cc1cnc[nH]1)C(=O)N[C@@H](CC(N)=O)C(=O)N[C@@H](CC(C)C)C(=O)NCC(=O)N[C@@H](CCCCN)C(=O)N[C@@H](Cc1cnc[nH]1)C(=O)N[C@@H](CC(C)C)C(=O)N[C@@H](CC(N)=O)C(=O)N[C@@H](CO)C(=O)N[C@@H](CCSC)C(=O)N[C@@H](CCC(=O)O)C(=O)N[C@@H](CCCN=C(N)N)C(=O)N[C@H](C(=O)N[C@@H](CCC(=O)O)C(=O)N[C@@H](Cc1c[nH]c2ccccc12)C(=O)N[C@@H](CC(C)C)C(=O)N[C@@H](CCCN=C(N)N)C(=O)N[C@@H](CCCCN)C(=O)N[C@@H](CCCCN)C(=O)N[C@@H](CC(C)C)C(=O)N[C@@H](CCC(N)=O)C(=O)N[C@@H](CC(=O)O)C(=O)N[C@H](C(=O)N[C@@H](Cc1cnc[nH]1)C(=O)N[C@@H](CC(N)=O)C(=O)N[C@@H](Cc1ccccc1)C(=O)O)C(C)C)C(C)C [LY333334]
Postmenopausal women; 40 μg/day, 21 months
  final PD model predicted increase in hip (femoral neck) BMD: ~5.2%
  final PD model predicted increase in total lumbar spine BMD: ~14.6%
Postmenopausal women; 20-μg group, 21 months
  treatment group model change from mean baseline femoral neck BMD: 2.8%
  treatment group model change from mean baseline spine BMD: 10.5%
  treatment group model predicted change in femoral neck BMD: 0.018 g/cm^2
  treatment group model predicted change in spine BMD: 0.086 g/cm^2
Postmenopausal women; [3]
  base model change from mean baseline femoral neck BMD: 4.2%
  base model change from mean baseline spine BMD: 12.6%
Postmenopausal women; 21 months, 20 and 40 μg groups together, 272 patients
  base model predicted increase in femoral neck BMD, typical treated patient: 0.027 g/cm^2
Postmenopausal women; 21 months, 20 and 40 μg groups together, 276 patients
  base model predicted increase in spine BMD, typical treated patient: 0.103 g/cm^2
Postmenopausal women; 40-μg group, 21 months
  treatment group model change from mean baseline femoral neck BMD: 5.3%
  treatment group model change from mean baseline spine BMD: 14.8%
  treatment group model predicted change in femoral neck BMD: 0.034 g/cm^2
  treatment group model predicted change in spine BMD: 0.121 g/cm^2
Postmenopausal women; from a total of 272, 21 months, FIG. 11
  subjects with a negative BMD response (spine BMD<0.00 g/cm^2): four
[1]
  incidence of new vertebral and non-vertebral fractures compared to placebo: reduced the incidence of new vertebral fractures and non-vertebral fractures
[2]; (18 months)
  BSAP level after termination of PTH treatment: BSAP remained at an elevated level
[2]; FIG. 8
  percent change in PICP serum levels during treatment: reached a peak within about one or two months
[2]; FIG. 9
  percent change in NTX urine levels during treatment: increased steadily until about 12 months after treatment initiation
[2]; [4]
  NTX levels after termination of PTH treatment: had declined but remained elevated compared to pretreatment levels
  PICP levels after termination of PTH treatment: PICP levels were the same pre-treatment levels
